The target in test [1] is Integrin alphaIIbbeta3 (Homo sapiens (Human), UniProt P05106+P08514). The test is described as follows: alphaIIbbeta3-Fibrinogen binding assay (competitive ELISA). To be noted: inhibition of integrin binding to coated fibrinogen; read-out: IC50 alphabIIbbeta3. As for the experimental part: (§1) The optimal concentrations of integrin and ligand were selected from ELISA binding studies with variable concentrations of both to obtain optimal signal noise ratio for further studies. IC50 studies were performed with fixed concentration of ligand and integrin and a serial dilution of inhibitor. The plates were measured with SpectraMax Plus reader (Molecular Devices). The resulting inhibition curves were analyzed using SoftMaxPro 4.0 software, the turning point describes the IC50 value.
(§2) Fibronectin was purchased from Sigma and fibrinogen from Calbiochem. (EMD Biosciences, Darmstadt, Germany). The integrin alpha5beta1 extracellular domain Fc-fusion was expressed and purified as described (Coe, 2001, J. Biol. Chem., 276, 35854). Integrin alphaIIbbeta3 was purchased form Kordia (Kordia Life Science, Leiden, Netherlands)
Fibrinogen was diluted with coating buffer (15 mM Na2CO3, 35 mM NaHCO3, pH 9.6) and coated with 100 μL/well to Nunc-Immuno maxisorp plates over night at 4° C. After discarding the coating solution plates were washed 3 times with buffer 1 (25 mM Tris, pH 7.6, 150 mM NaCl, 1 mM MnCl2, 1 mg/ml BSA) and blocked with 100 μL blocking buffer (3% BSA in PBS 0.1% Tween20) for 1 hour at room temperature. After washing the blocked plates (3 times) with buffer 1, integrin alphaIIbbeta3 (50 μL) and either inhibitor (serial dilution in buffer 3, 25 mM Tris, pH 7.6, 150 mM NaCl, 1 mM MnCl2, 1 mg/ml BSA 1 mM MgCl2, 1 mM CaCl2,) or buffer 3 (50 μL) were added to the wells and incubated for one hour at RT. Plates were then washed (3 times) with buffer 3 and incubated with 100 μL of anti-alphaIIbbeta3 antibody (anti CD41b, Pharmingen) in buffer 3 for 1 hour at RT. Plates were washed (3 times) with buffer 3 and incubated for 1 hour with 100 μL secondary antibody (anti-mouse-HRP conjugate, Sigma) in buffer 3. After additional washing steps (3 times) with buffer 350 μL of HRP substrate solution TMB (Seramun) were added to the wells. Color development was stopped after 3-5 minutes with 50 μL 1 M H2SO4. The developed color was measured at 450 nm and analyzed as described above.

Test [2] addresses alpha5beta1 (Homo sapiens (Human), UniProt P05556+P08648). The experiment in a line: Cell adhesion assay with HEK293. Format: cell-based. To be noted: HEK293 cells, fibronectin-coated plates, 1 h at 37° C., 2 mM MgCl2. As for the experimental part: Cryopreservated cells were thawed and grown for 72 h in DMEM medium with 10% FCS, 2 mM glutamine, 100 U/ml penicillin and 100 μg/ml streptomycin before use.
Cells were detached with cell dissociation solution (Sigma) and suspended in growth medium, centrifuged and resuspended in buffer A (150 mM NaCl, 25 mM HEPES, 2 mM EDTA, pH 7.4). Cells were incubated for 30 min at 37° C. in a 5% CO2. Subsequently, cells were washed with pre-warmed buffer B (150 mM NaCl, 25 mM HEPES pH 7.4) and resuspended in buffer B. 96-well Maxisorp-plate were coated with 0.01% poly-L-lysine, 10 μg/ml fibronectin (Chemicon; #F1904) in carbonate buffer or carbonate buffer alone (15 mM Na2CO3, 35 mM NaHCO3, pH 9.6) for 1 h at RT. Plates were washed and blocked with 1% BSA for 30 min at RT. Cells were preincubated with test compound and adjusted DMSO concentrations for 10 min at RT. 7×10^4 cells per well were plated in triplicate and allowed to attach for 1 h at 37° C. in the presence of 2 mM MgCl2. Cells were washed with PBS and adherent cells were fixed with 5% glutaraldehyde for 30 min.
Cells were subsequently washed and stained with 0.1% Crystal Violet for 1 hr at 37° C. Plates were washed and incorporated dye was solubilized with 10% acetic acid. Absorbance was measured at 570 nm using a Spectramax Plus 384 microtiter plate reader and analyzed with SoftMaxPro (Molecular Devices). Minimal binding on BSA was subtracted. IC50 values were determined using XL-FIT.

The test system of test [3] is HUVEC. The experiment in a line: Migration assay with HUVEC. Format: cell-based. To be noted: Homo sapiens, transwell coated with chymotryptic fibronectin fragment, 10 ng/ml bFGF chemoattractant, 3 h. The procedure:
Migration assays are carried out using modified Boyden chambers consisting of Fluoroblock Transwell membrane filter (8 μm pores) in 24 well companion tissue plates (BD). Three wells per group are used.
The underfaces of the transwell membranes are coated with chymotryptic fibronectin fragment (10 μg/ml; Chemicon) and blocked with 2% BSA for 1 h at room temperature. After rinsing with PBS transwells are placed into companion plates containing 700 μl serumfree medium with indicated compound concentrations and chemoattractant (10 ng/ml bFGF; Promocell).
HUVEC are maintained in standard culture medium (Endothelial Cell Growth Medium; Promocell, containing supplement mix and 2% FCS) in a humified 5% CO2 incubator at 37° C. Cells are grown to 70-90% confluency and are made quiescent in culture medium containing 0.5% FCS, 0.1% BSA, no supplements for 16 h. Medium is removed and serum-free medium (0% FCS; 0.1% BSA, no supplements) is added for 1.5 h. Cells are detached with trypsin and cell suspension is adjusted to 1×10^5/ml. Indicated compound concentrations are added to cells. Cells are preincubated with compounds for 15 min, before seeding of 250 μl of the cell suspensions into the transwells. Cells are allowed to migrate for 3 h in 37° C. incubator with 5% CO2. Then, transwells are transferred to 24 well companion tissue plates containing Calcein AM (4 μM; Molecular Probes) in HBSS and incubated for another 2 h. Plates are read at excitation/emission […] in a fluorescence reader.
Results are expressed as percent of control (cells in serumfree medium without compound and chemoattractant.

Test [4] deals with integrin alpha5beta1 extracellular domain Fc-fusion (Homo sapiens (Human), UniProt P05556+P08648). The experiment in a line: alpha5beta1-Fibronectin binding assay (competitive ELISA). The settings on record: inhibition of integrin binding to coated fibronectin. The procedure: as §1, §2
Fibronectin was diluted with coating buffer (15 mM Na2CO3, 35 mM NaHCO3, pH 9.6) and coated with 100 μL/well to Nunc-Immuno maxisorp plates (Nalge Nunc Europe Ltd) over night at 4° C. After discarding the coating solution plates were washed 3 times with buffer 1 (25 mM Tris, pH 7.6, 150 mM NaCl, 1 mM MnCl2, 1 mg/ml BSA) and blocked with 100 μL blocking buffer (3% BSA in PBS 0.1% Tween20) for 1 hour at room temperature. After washing the blocked plates (3 times) with buffer 1, integrin (50 μL) and either inhibitor (serial dilution in buffer 1) or buffer 1 (50 μL) were added to the wells and incubated for one hour at RT. Plates were then washed (3 times) with buffer 1 and incubated with 100 μL of anti-human-Fc-HRP antibody conjugate (Sigma-Aldrich, Taufkirchen, Germany) in buffer 1 for 1 hour at RT. After additional washing steps (3 times) with buffer 150 μL of HRP substrate solution TMB (Seramun, Germany) were added to the wells. Color development was stopped after 3-5 minutes with 50 μL 1 M H2SO4. The developed color was measured at 450 nm and analyzed as described above.
Background: ELISA stands for enzyme-linked immunosorbent assay.

Each structure is given as a SMILES string. Where only a bound is given, the exact number is not on record here.

The IC50 is the point on the concentration scale where inhibition reaches its midpoint. On to `CCc1cc(F)cc(C)c1C(=O)NC(Cc1ccc(N2CCC(CNc3ccccn3)CC2)cc1)C(=O)O` (centres unmarked) [Compound 120, 2-(2-ethyl-4-fluoro-6-methylbenzamido)-3-(4-(4-((pyridin-2-ylamino)methyl)piperidin-1-yl)phenyl)propanoic acid], for which the IC50 in test [1] was more than 1000 nM; in test [2], less than 2000 nM; in test [3], less than 10000 nM; in test [4], less than 100 nM.
For `Cc1ccnc(NCC2CC(=O)N(c3ccc(CC(NC(=O)c4c(C)cc(C)cc4C)C(=O)O)cc3)C2)c1` (centres unmarked) [Compound 114, 3-(4-(4-((4-methylpyridin-2-ylamino)methyl)-2-oxopyrrolidin-1-yl)phenyl)-2-(2,4,6-trimethylbenzamido)propanoic acid], the half-maximal inhibitory concentration (IC50) was less than 2000 nM in test [2], less than 10000 nM in test [3] and less than 100 nM in test [4].
Consider `Cc1cc(C)c(C(=O)NC(Cc2ccc(N3CCC(c4ccc5c(n4)NCCC5)CC3)cc2)C(=O)O)c(C)c1` (centres unmarked) [Compound 23, 3-(4-(4-(5,6,7,8-tetrahydro-1,8-naphthyridin-2-yl)piperidin-1-yl)phenyl)-2-(2,4,6-trimethylbenzamido)propanoic acid], for which the IC50 in test [1] is more than 1000 nM; in test [2] it was less than 2000 nM; in test [3], less than 10000 nM; in test [4], less than 100 nM.
Turning to `CCCNC(=O)NCC1CCN(c2ccc(CC(NC(=O)c3c(C)cc(C)cc3C)C(=O)O)cc2)CC1` (centres unmarked) [Compound 269, 3-(4-{4-[(3-propyl-ureido)methyl]piperidin-1-yl}phenyl)-2-(2,4,6-trimethyl-benzoylamino)propionic acid], the IC50 in test [1] is more than 1000 nM; in test [2] it was more than 20000 nM; in test [4], less than 100 nM.
For `Cc1ccnc(NCC2CCN(c3ccc(CC(NC(=O)C(c4ccccc4)C(C)C)C(=O)O)cc3)CC2)c1` (centres unmarked) [Compound 266, 2-(3-methyl-2-phenyl-butyrylamino)-3-(4-{4-[(4-methyl-pyridin-2-ylamino)methyl]piperidin-1-yl}phenyl)propionic acid] the same measures were more than 1000 nM, less than 2000 nM and less than 100 nM.
For `Cc1ccnc(NCC2CCN(c3ccc(CC(NC(=O)C4(C)CCCCC4)C(=O)O)cc3)CC2)c1` (centres unmarked) [Compound 75, 2-(1-methylcyclohexanecarboxamido)-3-(4-(4-((4-methylpyridin-2-ylamino)methyl)piperidin-1-yl)phenyl)propanoic acid] the same measures were more than 1000 nM, less than 2000 nM and less than 100 nM.
With `Cc1ccnc(NCC2CCN(c3ccc(CC(NC(=O)c4ccccc4)C(=O)O)cc3)CC2)c1` (centres unmarked) [Compound 262, 2-benzoylamino-3-(4-{4-[(4-methyl-pyridin-2-ylamino)methyl]piperidin-1-yl}phenyl)propionic acid], the IC50 in test [2] was 2000 to 20000 nM; in test [4] it was less than 100 nM.
For `Cc1ccnc(NCC2CCN(c3ccc(CC(NC(=O)c4c(C)cc(C)cc4C)C(=O)O)cc3)CC2)c1` (centres unmarked) [Compound 8, 3-(4-(4-((4-methylpyridin-2-ylamino)methyl)piperidin-1-yl)phenyl)-2-(2,4,6-trimethylbenzamido)propanoic acid], the IC50 was more than 1000 nM in test [1], less than 2000 nM in test [2], less than 10000 nM in test [3] and less than 100 nM in test [4].
On to `Cc1cc(C)c(C(=O)NC(Cc2ccc(N3CC(CNc4ccccn4)C3)cc2)C(=O)O)c(C)c1` (centres unmarked) [Compound 11, 3-(4-(3-((pyridin-2-ylamino)methyl)azetidin-1-yl)phenyl)-2-(2,4,6-trimethylbenzamido)propanoic acid], for which the IC50 in test [1] is more than 1000 nM; in test [2], more than 20000 nM; in test [4], more than 100 nM.
In the case of `CC1(C(=O)NC(CC2CCN(C(=O)CCc3ccc4c(n3)NCCC4)CC2)C(=O)O)CCCCC1` (centres unmarked) [Compound 29, 2-(1-methylcyclohexanecarboxamido)-3-(1-(3-(5,6,7,8-tetrahydro-1,8-naphthyridin-2-yl)propanoyl)piperidin-4-yl)propanoic acid], the 50% inhibitory concentration (IC50) in test [1] was more than 1000 nM; in test [2], 2000 to 20000 nM; in test [3], more than 20000 nM; in test [4] it was less than 100 nM.
As for `Cc1cc(C)c(C(=O)NC(Cc2ccc(N3CCC(CNc4nc5ccccc5[nH]4)CC3)cc2)C(=O)O)c(C)c1` (centres unmarked) [Compound 20, 3-(4-(4-((1H-benzo[d]imidazol-2-ylamino)methyl)piperidin-1-yl)phenyl)-2-(2,4,6-trimethylbenzamido)propanoic acid], the 50% inhibitory concentration (IC50) is more than 1000 nM in test [1], 2000 to 20000 nM in test [2] and more than 100 nM in test [4].
As to `COc1ccnc(NCC2CCN(c3ccc(CC(NC(=O)c4c(C)cc(C)cc4C)C(=O)O)cc3)CC2)c1` (centres unmarked) [Compound 147, 3-(4-(4-((4-methoxypyridin-2-ylamino)methyl)piperidin-1-yl)phenyl)-2-(2,4,6-trimethylbenzamido)propanoic acid], the IC50 in test [2] was less than 2000 nM; in test [4], less than 100 nM.
